Test results taken from patent US10676767B2, “Methods and compositions for making ephedrine and related alkaloid compounds” (priority 2015, dated 2020).

Assays:
[1] = tested on: N-methyltransferase (NMT); test: Standard enzyme assay with purified E. coli-produced NMT, N-methylated product measured by LC-MS; format: biochemical, Ephedra sinica; conditions: for acceptance as substrate for N-methylation by NMT (FIG. 3): 1 mM alkaloid substrate, 1 mM SAM, 100 μg/mL purified NMT, 4 h at 37° C., pH 8.5
Procedure: Open reading frames (ORFs) of N-methyltransferase (NMT) enzyme sequences (i.e. SEQ. ID NO: 1 and SEQ. ID NO: 2) were subcloned into Escherichia coli expression vector pET47b (Merck Millipore) in-frame with vector-encoded His-tag for downstream purification purposes. Constructs were transformed into E. coli strains ArcticExpress (Agilent Technologies) or Rosetta (Novagen). Recombinant His-tagged protein production was performed according to standard procedures (Farrow et al. 2013. J. Biol. Chem. 288: 28977) and manufacturer's instructions. Briefly, cultures of E. coli harboring pET47b were grown on an orbital shaker (200 rpm) to log phase in 1 L of LB medium containing gentamicin, streptomycin and kanamycin (Arctic Express) or chloramphenicol and kanamycin (Rosetta). Recombinant His-tagged protein production was initiated by the addition of 1 mM isopropyl β-D-1-thiogalactopyranoside (IPTG). To produce NMT, cultures were grown for 24 h at 15° C.
For purification, bacterial pellets obtained following induction/incubation were resuspened in 10 mL of resuspension buffer (50 mM Tris pH 8.5, 10% v/v glycerol, 1% w/v polyvinylpyrrolidone, 5 mM dithiothreitol) and lysed at 4° C. using a French pressure cell (1,000 psi). After centrifugation (10,000 g) to remove insoluble debris, the supernatant was incubated on ice with buffer-equilibrated Talon resin (Clontech) on an orbital shaker (60 rpm) for 60 minutes. The protein-charged resin was washed twice with 10 mL of cold resuspension buffer containing 2.5 mM imidazole, and proteins were eluted stepwise with increasing concentrations (10 to 200 mM) of imidazole in resuspension buffer. Total proteins from a 40 mM imidazole elution were desalted using a PD-10 column (EMD Millipore) and resuspension buffer free of imidazole. Recombinant proteins were analyzed by SDS-PAGE to assess yield and purity, and immunoblot analyses were conducted using α-His primary antibodies and goat-anti-mouse, horseradish peroxidase-conjugated secondary antibodies. Total protein concentration was determined using BCA Protein Assay kit (Thermo Scientific). Calculated protein concentrations were adjusted on gel densitometry. […] Specifically, standard enzyme reactions consisted of 50 mM Tris pH 8.5, 10 v/v glycerol, 1% w/v polyvinylpyrrolidone, 5 mM dithiothreitol, 1 mM alkaloid substrate, 1 mM SAM (S-adenosylmethionine) and 100 μg/mL purified NMT protein in a total of 100 μl reaction volume. Reactions were incubated for 4 h at 37° C., and stopped via 1) basification of the reaction mixture to pH 10-11, and 2) immediate addition of 1 mL ethyl acetate. Quenched reactions were vortexed and centrifuged (10,000 rpm) to separate organic and aqueous phases, and organic phase was carefully drawn off, placed in a new tube, reduced to dryness under vacuum, and resuspended in 500 μL of Solvent A (10 mM ammonium acetate pH 5.5, 5% v/v methanol). The resuspensions were centrifuged (10,000 rpm) prior to analysis by LC-MS to remove insoluble matter.
Ten μL sample was injected for LC-MS analysis using an Agilent 6410B triple quadrupole mass analyzer equipped with a 1200 Agilent HPCL system. Samples were fractionated using a previously described LC-ESI-MS/MS method [J. Chromatography B. 879:727, 2011] employing a Prodigy Phenyl-3 column (Phenomenex) which separated enantiomeric pairs (e.g. pseudoephedrine/ephedrine). Briefly, the HPLC gradient began as 95% Solvent A (Solvent B=100% methanol) for 1 minute at a flow rate of 0.2 ml/min, and decreased to 30% Solvent A/70% Solvent B over 19 minutes, then graded to 10% Solvent A/[…] over 0.5 minutes, then immediately returned to 100% Solvent A and equilibrated for 5 minutes. […] ESI and MS conditions were essentially the same as described [J. Chromatography B. 879:727, 2011].

plant-derived NMT = test: NMT activity assay with Ephedra sinica plant tissue extract; format: biochemical; conditions: standard assay conditions, 4 hour assay, Ephedra sinica-derived protein
Procedure: For purification, bacterial pellets obtained following induction/incubation were resuspened in 10 mL of resuspension buffer (50 mM Tris pH 8.5, 10% v/v glycerol, 1% w/v polyvinylpyrrolidone, 5 mM dithiothreitol) and lysed at 4° C. using a French pressure cell (1,000 psi). After centrifugation (10,000 g) to remove insoluble debris, the supernatant was incubated on ice with buffer-equilibrated Talon resin (Clontech) on an orbital shaker (60 rpm) for 60 minutes. The protein-charged resin was washed twice with 10 mL of cold resuspension buffer containing 2.5 mM imidazole, and proteins were eluted stepwise with increasing concentrations (10 to 200 mM) of imidazole in resuspension buffer. Total proteins from a 40 mM imidazole elution were desalted using a PD-10 column (EMD Millipore) and resuspension buffer free of imidazole. Recombinant proteins were analyzed by SDS-PAGE to assess yield and purity, and immunoblot analyses were conducted using α-His primary antibodies and goat-anti-mouse, horseradish peroxidase-conjugated secondary antibodies. Total protein concentration was determined using BCA Protein Assay kit (Thermo Scientific). Calculated protein concentrations were adjusted on gel densitometry. Standard enzyme assays included approximately 100 μg/mL purified NMT protein, which was determined to be in the linear range of catalyst performance. […]

Compound | acceptance as substrate for N-methylation by NMT (FIG. 3) [1] | conversion by plant-derived extract (plant-derived NMT) | effectiveness as NMT substrate, absolute product quantification (FIG. 4) ([1]; standard assay conditions, product quantified with standard curves as ng alkaloid per μg protein per hour)
NCC(O)c1ccc(O)cc1 (stereo not shown) [octopamine] | accepted as substrates | – | –
CC(N)C(O)c1ccccc1 (stereo not shown) [norephedrine] | – | yielding ephedrine at comparable levels to E. coli-produced NMT | –
CN[C@@H](C)[C@@H](O)c1ccccc1 [pseudoephedrine] | accepts | – | –
C[C@H](N)C(=O)c1ccccc1 [cathinone] | acting as substrate | – | –
CNCC(O)c1ccc(O)cc1 (stereo not shown) [Synephrine, synephrine] | accepted as substrates | – | –
CN[C@@H](C)[C@H](O)c1ccccc1 [ephedrine] | accepts | – | somewhat lower
